In patent publication US11061017B2, “High throughput and functional screening method for muscle related disorders and biological processes” (CYTOO, priority 2015, dated 2021):

Key:
[1] = system: myotubes differentiated from healthy donors (human primary myoblasts HSMM, Lonza); test: Myotube shortening assay (contraction induction, troponin T immunostaining, image analysis); assay type: cell-based; conditions: 4-chloro-m-cresol 1.5 mM, 3 minutes
Procedure: Human primary myoblasts (HSMM, Lonza) are cultured on fibronectin coated surfaces within growth medium (Lonza SkGM™-2 cell culture Kit) during 24 hours. Then cells are cultured within differentiation medium (DMEM/F12, 2% Horse Serum, 0.5% P/S) for 5 days. Compounds (4-chloro-m-cresol, 1.5 mM) are added to myotubes during 3 minutes. Cells are fixed and an immunostaining is realized against troponin T and nuclei. Images are acquired using an Operetta high content imaging system (PerkinElmer). Automated image segmentation and analysis methods has been developed by the inventors using the Acapella software library (PerkinElmer). Then, objects are analyzed to extract basic parameters such as myotube count, nuclei count, myotube morphology (including their length, width, area), fusion index (through the percentage nuclei embedded within myotubes). However, the main descriptor of myotube shortening is the quantification of the number of spots, which are objects obtained due to myotube detachment from the culture device and subsequent folding of at least one extremity of the myotube on itself (FIG. 2B, right). Taking said parameters into account, aberrant myotubes are removed. An advanced descriptor is additionally measured, as the number of myotubes encompassing a length lower than 470 μm. […] As myotubes treatment with 4-chloro-m-cresol induces 25% decrease in tube area, and 50% increase in staining intensity readouts, the use of spot number quantification largely increases the assay window (1000%) with a reduced variability, ensuring a full compatibility of the assay with compounds screening (Z′-factors higher than 0.7).

[2] = system: myotubes from DMD donors; test: DMD myotube morphology rescue assay; assay type: cell-based, human; conditions: for increase of fusion index in DMD myotubes / increase of tube number in DMD myotubes: prednisone 500 nM, deflazacort 50 nM
Procedure: Using previously described protocol, human primary myoblasts, are cultured on fibronectin coated surfaces within growth medium during 24 hours. Then cells are cultured within differentiation medium (DMEM/F12, 2% Horse Serum, 0.5% P/S) for 24 hours. Therapeutic drug candidates are added and myotubes are then cultured during 96 hours. Cells are fixed and an immunostaining is realized against troponin T and nuclei. Images are acquired using an Operetta high content imaging system (PerkinElmer). Automated image processing was been developed by the inventors using the Acapella software library (PerkinElmer).

[3] = system: myotubes from healthy donor; test: Inhibition of calcium release after acetylcholine or 4-chloro-m-cresol induction (Fluo-4); assay type: cell-based, human; conditions: tubocurarine 100 μM, succinylcholine 25 μM; for effect on 4-chloro-m-cresol induction of calcium release: 4-chloro-m-cresol 400 μM induction; for decrease of relative fluorescence intensity after acetylcholine induction: acetylcholine 20 μM induction, inhibitor added 15 minutes before, verapamil, nifedipine, nicardipine 40 μM
Procedure: (§1) As myotube shortening can also take origin from compound toxicity, physiological cues of myotube contraction need to be validated. Hit validation is performed using a secondary assay estimating the level of calcium release to myotube cytoplasm. Myotubes differentiated from donors are cultured during 5 days and stained with a calcium sensitive florescent probe Fluo-4 (2 μM) in a dedicated buffer (145 mM NaCl, 5 mM KCl, 1 mM CaCl2, 1 mM MgCl2, 5.6 mM glucose, 10 mM Hepes, pH 7.4). A single compound is added to cultured myotubes and a time-lapse acquisition is performed during 30 seconds (Eclipse-Ti, Nikon), by taking a picture each second, to follow the increase in fluorescence intensity of the probe due to calcium entry into the cytoplasm. After fluorescence background removal, a relative fluorescence intensity is calculated in the whole myotubes for each timepoint, normalizing to the first value set up at 100%.
Myoblasts are differentiated during 5 days in culture, then potential inhibitors are added in calcium buffer 15 minutes before an acethycholine treatment. […] Moreover mode of action characterization can be optimized by comparing a compound effect on both acethycholine and 4-chloro-m-cresol inductions. […] Even if a time-lapse method is described here using a classical widefield microscope, this embodiment of the invention is fully compatible with kinetic plate readers systems allowing automated calcium flow measurements, including the Hamamatsu FDSS.

[4] = system: myotubes differentiated from healthy donors; test: Calcium release assay in myotubes (Fluo-4 time-lapse), inducers; assay type: cell-based, human; conditions: acetylcholine 20 μM, caffeine 10 mM, IGF-1 37 nM, 30 seconds time-lapse
Procedure: as §1

[5] = system: myotubes from a healthy donor with chemically induced atrophy; test: Atrophy induction and atrophy rescue assay (muscle disuse or wasting model); assay type: cell-based, human; conditions: for reduction of myotube area (atrophy induction) / rescue of atrophy induced by dexamethasone: dexamethasone 100 μM; for reduction of myotube area (atrophy induction) / rescue of atrophy induced by myostatin: myostatin 4.8 nM; for reduction of myotube area (atrophy induction) / rescue of atrophy induced by IL1-β: IL1-β 1.16 nM; for reduction of myotube area (atrophy induction) / rescue of atrophy induced by TNF-α: TNF-α 115 pM; for reduction of myotube area (atrophy induction): 96 hours; for rescue of atrophy induced by IL1-β / rescue of atrophy induced by TNF-α / rescue of atrophy induced by dexamethasone / rescue of atrophy induced by myostatin: IGF-1 18.75 nM, trichostatin A 300 nM
Source text: Another possible application is to mimic muscle wasting disorders (cachexia, sarcopenia) by chemically inducing atrophy on myotubes from healthy donors and then to screen compounds potentially rescuing the atrophic phenotype. As patients suffering from a large decrease in muscle mass, primary myoblast samples or myofibers can't be collected for ethical reasons and artificial in vitro strategies are necessary. Nonetheless, signaling pathways impacted in cachexia and sarcopenia are well described in the literature implicating three major cascades: glucocorticoid, Smad2/3 and the NF-κB pathway. Molecules known to reproduce these molecular mechanisms can therefore be used to simulate pathological myotubes. For example, glucocorticoid pathway can be mimicked by dexamethasone treatment, Smad2/3 pathway by myostatin and TGF-β treatments, and NF-κB pathway by IL1-β and TNF-α treatments.
To do so, human primary myoblasts (HSMM, Lonza), from a healthy donor, are cultured on fibronectin coated surfaces within growth medium (Lonza SkGM™-2 cell culture Kit) during 24 hours. Then cells are cultured within differentiation medium (DMEM/F12, 2% Horse Serum, 0.5% P/S) for 24 hours. Candidates with potential rescue effect are added to the forming myotubes 15 minutes before the atrophic inducer. Then myotubes are cultured during 96 hours. Cells are fixed and an immunostaining is realized against troponin T and nuclei. Images are acquired using an Operetta high content imaging system (PerkinElmer). Automated image processing has been developed by the inventors using the Acapella software library (PerkinElmer).

[6] = system: myotubes differentiated from healthy donors; test: Morphology assay (myotube area and nuclei count, dose response); assay type: cell-based, human; conditions: 96 hours, compared to untreated control
Procedure: Human primary myoblasts (HSMM, Lonza), from a healthy donor, are cultured on fibronectin coated surfaces within growth medium (Lonza SkGM™-2 cell culture Kit) during 24 hours. Then cells are cultured within differentiation medium (DMEM/F12, 2% Horse Serum, 0.5% P/S) for 24 hours. Compounds are added to the forming myotubes during 96 hours. Cells are fixed and an immunostaining is realized against troponin T and nuclei. Images are acquired using an Operetta high content imaging system (PerkinElmer).
In order to characterize compounds mode of action on the myotube model (including myoblasts differentiation, myotube maturation, myotube hypertrophy, myotube atrophy, or cell viability), automated image segmentation and analysis methods has been developed by the inventors using the Acapella software library (PerkinElmer).
First, customized segmentations of myotubes and nuclei are performed.
Second, objects are analyzed to extract basic parameters such as myotube count, nuclei count, myotube morphology (including their length, width, area, and orientation), fusion index (through the percentage nuclei within myotubes). Taking said parameters into account, aberrant myotubes are removed.

[7] = system: myotubes differentiated from myoblasts of healthy donors; test: Glucose metabolism assay (Glucose Uptake Colorimetric Assay Kit); assay type: cell-based, human
Procedure: (§2) Human primary myoblasts from a healthy or a type I diabetic donor, are cultured on fibronectin coated surfaces within growth medium during 24 hours. Then cells are cultured within differentiation medium (DMEM/F12, 2% Horse Serum, 0.5% P/S) for 24 hours. Therapeutic drug candidates are added and myotubes are then cultured during 96 hours. Compound effect on glucose metabolism is performed by using the indications provided by the manufacturer (Glucose Uptake Colorimetric Assay Kit, Sigma).

[8] = system: myotubes from healthy and type I diabetes donors; test: Morphology of myotubes from healthy and type I diabetes donors; assay type: cell-based, human; conditions: insulin 10 μM
Procedure: as §2
FIG. 10 is a quantification of some relevant morphological parameters, as tube number, fusion index, tube area tube width, of myotubes from healthy and type I diabetes donors, cultured in control and insulin (10 μM) conditions according to the invention. […] This illustrates the specificity of metabolisms assays on compounds detection and the complementarity of the approaches to detect new drugs rescuing specifically metabolic disorders.

With `Cc1cc(O)ccc1Cl` [4-chloro-m-cresol] the “spot number quantification, assay window” value [1] was 1000%, the “decrease in tube area” value ([1]; myotubes cultured 5 days) was 25% and the “increase in staining intensity” value ([1]; troponin T staining) was 50%.
`C[C@]12C=CC(=O)C=C1CC[C@@H]1[C@@H]2C(=O)C[C@@]2(C)[C@H]1CC[C@]2(O)C(=O)CO` [Prednisone, prednisone] was tested, and the “increase of fusion index in DMD myotubes” value [2] was 28% and the “increase of tube number in DMD myotubes” value [2] was 20%.
In the case of `COc1cc2c3cc1Oc1cc(ccc1O)C[C@@H]1c4c(cc(OC)c(O)c4Oc4ccc(cc4)C[C@@H]3N(C)CC2)CC[N+]1(C)C` [Tubocurarine, tubocurarine], the “effect on 4-chloro-m-cresol induction of calcium release” value [3] is reported as 0% and the “decrease of relative fluorescence intensity after acetylcholine induction” value [3] is reported as 96%.
`CC(=O)OCC[N+](C)(C)C` [acethylcholine, acetylcholine] was tested, and the “increase of relative fluorescence intensity (calcium release) compared to steady state level” value [4] was 305%.
In the case of `Cn1c(=O)c2c(ncn2C)n(C)c1=O` [caffeine], the “increase of relative fluorescence intensity (calcium release) compared to steady state level” value [4] is reported as 55%.
For `CC(=O)OCC(=O)[C@@]12N=C(C)O[C@@H]1C[C@H]1[C@@H]3CCC4=CC(=O)C=C[C@]4(C)[C@H]3[C@@H](O)C[C@@]12C` [deflazacort], the “increase of fusion index in DMD myotubes” value [2] was 59% and the “increase of tube number in DMD myotubes” value [2] was 54%.
With `C[C@@H]1C[C@H]2[C@@H]3CCC4=CC(=O)C=C[C@]4(C)[C@@]3(F)[C@@H](O)C[C@]2(C)[C@@]1(O)C(=O)CO` [dexamethasone] the “reduction of myotube area (atrophy induction)” value (shortened to “reduction of myotube area”) [5] was 60%.
In the case of `COC(=O)C1=C(C)NC(C)=C(C(=O)OCCN(C)Cc2ccccc2)C1c1cccc([N+](=O)[O-])c1` (stereo not drawn) [nicardipine], the “decrease of relative fluorescence intensity after acetylcholine induction” value [3] is reported as 91%.
`C[N+](C)(C)CCOC(=O)CCC(=O)OCC[N+](C)(C)C` [succinylcholine] was tested, and the “effect on 4-chloro-m-cresol induction of calcium release” value [3] was −30% and the “decrease of relative fluorescence intensity after acetylcholine induction” value [3] was 94%.
For `CC(/C=C/C(=O)NO)=C\[C@@H](C)C(=O)c1ccc(N(C)C)cc1` [trichostatin A], the “rescue of atrophy induced by IL1-β” value [5] was 54%, the “rescue of atrophy induced by TNF-α” value [5] was 100% and the “rescue of atrophy induced by dexamethasone” value [5] was 175%. The “rescue of atrophy induced by myostatin” value [5] was 71% and the “effect on myotube area” value [6] was “atrophy/hypertrophy biphasic effects”.
In the case of IGF-1: hypertrophic reference compound, the “rescue of atrophy induced by IL1-β” value [5] is reported as 85%, the “rescue of atrophy induced by TNF-α” value [5] is reported as 89% and the “rescue of atrophy induced by dexamethasone” value [5] is reported as 275%. For the same molecule, the “rescue of atrophy induced by myostatin” value [5] was 71%, the “effect on glucose uptake” value ([7]; IGF-1 37 nM) was “no effect” and the “increase of relative fluorescence intensity (calcium release) compared to steady state level” value [4] was 20%. The “rescue of fusion index in DMD myotubes” value ([2]; IGF-1 37 nM, 96 hours) was 204%, the “rescue of myotube width in DMD myotubes” value ([2]; IGF-1 37 nM, 96 hours) was 15% and the “rescue of tube number in DMD myotubes” value ([2]; IGF-1 37 nM, 96 hours) was 109%. For the same molecule, the “effect on myotube area” value [6] was “hypertrophic” and the “effect on nuclei count” value [6] was “without nuclei count alteration”.
With IL1-β: atrophy inducer, NF-κB pathway the “reduction of myotube area” value [5] was 35%.
For Insulin, the “effect on myotube morphology (tube number, fusion index, tube area, tube width)” value [8] was “does not modify myotube morphology” and the “increase of glucose metabolism” value ([7]; insulin 10 μM) was 67%.
For “TGF-β: atrophic reference compound, Smad2/3 pathway”, the “effect on myotube area” value [6] was “atrophic” and the “effect on nuclei count” value [6] was “without nuclei count alteration”.
For TNF-α, the “reduction of myotube area” value [5] was 55%.
In the case of “myostatin: atrophic reference compound, Smad2/3 pathway”, the “reduction of myotube area” value [5] is reported as 30% and the “effect on nuclei count” value [6] is reported as “decrease in nuclei count”.
